According to PMC2936338 (Molecular Cancer, 2010):
Where two headings read alike, the source gives them in different places.

Key:
[1] = tested on: Cleaved Caspase-3 in HCT-116 cells; test: Western blot, HCT-116 cells; assay type: cell-based, human; conditions: HCT116, positive controls
Method: (§1) Membranes were analyzed with enhanced chemiluminescence Plus reagents (GE Healthcare) and scanned with a Storm PhosphorImager (Amersham Pharmacia Biotech Inc.).

[2] = tested on: P-STAT3(Y705) in HCT-116 cells; test: Western blot, HCT-116 cells; assay type: cell-based, human; conditions: HCT116, positive controls
Method: as §1

[3] = tested on: Cleaved Caspase-3 in U266 cells; test: Western blot, U266 cells; assay type: cell-based, human; conditions: U266, positive controls
Method: as §1

[4] = tested on: P-STAT3(Y705) in U266 cells; test: Western blot, U266 cells; assay type: cell-based, human; conditions: U266, positive controls
Method: as §1

[5] = tested on: SW480 colorectal cancer cells; test: MTT cell viability assay; conditions: read-out: IC50 values (μM), cell viability
Method: (§2) Twenty-five μl of 3-(4,5-Dimethylthiazolyl)-2,5-diphenyltetrazolium bromide (MTT, Sigma) was added to each sample and incubated for 3.5 hours. After this, 100 μl of N, N-dimethylformamide (Sigma) solubilization solution was added to each well. […] Half-Maximal inhibitory concentrations (IC50) were determined using Sigma Plot 9.0 software (Systat Software Inc., San Jose, CA).

[6] = tested on: HCT-116 colorectal cancer cells; test: MTT cell viability assay; conditions: read-out: IC50 values (μM), cell viability
Method: as §2

U87 glioblastoma cells = test: MTT cell viability assay; conditions: read-out: IC50 values (μM), cell viability
Method: as §2

U251 glioblastoma cells = test: MTT cell viability assay; conditions: read-out: IC50 values (μM), cell viability
Method: as §2

[7] = tested on: U266 multiple myeloma cells; test: MTT cell viability assay; conditions: read-out: IC50 values (μM), cell viability
Method: as §2

[8] = tested on: ARH77 multiple myeloma cells; test: MTT cell viability assay; conditions: read-out: IC50 values (μM), cell viability
Method: as §2

[9] = tested on: SNU-449 liver cancer cells; test: MTT cell viability assay; conditions: read-out: IC50 values (μM), cell viability
Method: as §2

[10] = tested on: SNU-398 liver cancer cells; test: MTT cell viability assay; conditions: read-out: IC50 values (μM), cell viability
Method: as §2

Hep3B liver cancer cells = test: MTT cell viability assay; conditions: read-out: IC50 values (μM), cell viability
Method: as §2

[11] = tested on: SNU-387 liver cancer cells; test: MTT cell viability assay; conditions: read-out: IC50 values (μM), cell viability
Method: as §2

[12] = tested on: STAT3 phosphorylation induced by IL-6 in MDA-MB-453 breast cancer cells; test: IL-6 induction of STAT3 phosphorylation; assay type: cell-based, human; conditions: MDA-MB-453, pretreatment 20 μM, IL-6 50 ng/mL 30 min
Method: After stimulation with IL-6 (50 ng/mL, Sigma) or IFN-γ (50 ng/mL, Sigma) for 30 min, the cells were harvested and analyzed by western blot.

SMILES | apoptosis indicated by cleavage of caspase-3 (in words) [1] | effect on STAT3 phosphorylation (in words) [2] | apoptosis indicated by cleavage of caspase-3 (in words) [3] | effect on STAT3 phosphorylation (in words) [4] | IC50 ([5]; Homo sapiens, SW480, 72 h) | IC50 ([6]; Homo sapiens, HCT-116, 72 h) | IC50 (U87 glioblastoma cells; Homo sapiens, 72 h) | IC50 (U251 glioblastoma cells; Homo sapiens, U-251, 72 h) | IC50 ([7]; Homo sapiens, U-266, 72 h) | IC50 ([8]; Homo sapiens, ARH-77, 72 h) | IC50 ([5]; SW480 (C), MTT, 72 hours) | IC50 ([6]; HCT-116 (C), MTT, 72 hours) | IC50 (U87 glioblastoma cells; U87 (G), MTT, 72 hours) | IC50 (U251 glioblastoma cells; U251 (G), MTT, 72 hours) | IC50 ([7]; U266 (MM), MTT, 72 hours) | IC50 ([8]; ARH77 (MM), MTT, 72 hours) | IC50 ([9]; SNU-449 (L), MTT, 72 hours) | IC50 ([10]; SNU-398 (L), MTT, 72 hours) | IC50 (Hep3B liver cancer cells; Hep3B (L), MTT, 72 hours) | IC50 ([11]; SNU-387 (L), MTT, 72 hours) | other results
C[C@H](NC(=O)/C(C#N)=C/c1cccc(Br)n1)c1ccccc1 [WP1066] | induce apoptosis | inhibit STAT3 phosphorylation | induce apoptosis | inhibit STAT3 phosphorylation | 1.98 µM | 1.51 µM | 5.78 µM | 5.04 µM | 1.38 µM | 3.43 µM | – | – | – | – | – | – | – | – | – | – | IC50 ([9]; Homo sapiens, SNU-449, 72 h): 3.85 µM; IC50 ([10]; Homo sapiens, SNU-398, 72 h): 4.88 µM; IC50 (Hep3B liver cancer cells; Homo sapiens, Hep3B, 72 h): 10.2 µM; IC50 ([11]; Homo sapiens, SNU-387, 72 h): 5.17 µM
Cc1ccc(S(=O)(=O)OCC(=O)Nc2ccc(C(=O)O)c(O)c2)cc1 [S3I-201] | – | – | – | – | – | – | – | – | – | – | > 100 µM | > 100 µM | 55.1 µM | 97.3 µM | 8.87 µM | 35.2 µM | > 100 µM | 16.2 µM | > 100 µM | > 100 µM | –
N#C/C(=C/c1ccc(O)c(O)c1)C(=O)NCc1ccccc1 [AG490] | – | – | – | – | – | – | – | – | – | – | 86.8 µM | 50.5 µM | > 100 µM | 50.7 µM | 9.5 µM | 28.2 µM | > 100 µM | 24.3 µM | > 100 µM | > 100 µM | –
COc1cc(/C=C/C(=O)CC(=O)/C=C/c2ccc(O)c(OC)c2)ccc1O [Curcumin] | – | – | – | – | 10.3 µM | 10.9 µM | 6.91 µM | 7.1 µM | 4.76 µM | 10.1 µM | – | – | – | – | – | – | – | – | – | – | inhibition of the induction of STAT3 phosphorylation by IL-6 [12]: not; IC50 ([9]; Homo sapiens, SNU-449, 72 h): 9.88 µM; IC50 ([10]; Homo sapiens, SNU-398, 72 h): 5.37 µM; IC50 (Hep3B liver cancer cells; Homo sapiens, Hep3B, 72 h): 68.1 µM; IC50 ([11]; Homo sapiens, SNU-387, 72 h): 25.5 µM
O=[N+]([O-])c1ccc2c(c1)S(=O)(=O)C=C2 [Stattic] | induce apoptosis | inhibit STAT3 phosphorylation | induce apoptosis | inhibit STAT3 phosphorylation | – | – | – | – | – | – | 0.43 µM | 0.96 µM | 0.73 µM | 0.84 µM | 0.99 µM | 2.57 µM | 2.5 µM | 3.23 µM | 17.8 µM | 4.3 µM | –
